ChEMBL document CHEMBL1201862, “PubChem BioAssay data set” (2004)
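Test compounds were applied to cells in 96-well plates for 48 hours at 5 doses. The concentration for 50% growth inhibition is given as GI50.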 Calls of active or inactive are those of the source. Rule as the data show it: active = GI50 up to about 1.1 µM and inactive = higher.

Columns and labels:
Assay in all cases: growth of human tumour cells (NCI), 48 h
[1] = test system: 786-0
[2] = test system: A498
[3] = test system: A549
[4] = test system: ACHN
[5] = test system: CAKI-1
[6] = test system: CCRF-CEM
[7] = test system: COLO 205
[8] = test system: DLD-1
[9] = test system: DMS-114
[10] = test system: DMS-273
[11] = test system: EKVX
[12] = test system: HCC 2998
[13] = test system: HCT-116
[14] = test system: HCT-15
[15] = test system: HL-60
[16] = test system: HOP-18
[17] = test system: HOP-62
[18] = test system: HOP-92
[19] = test system: HT-29
[20] = test system: IGROV-1
[21] = test system: K562
[22] = test system: KM-20L2
[23] = test system: KM12
[24] = test system: LOX IMVI
[25] = test system: LXFL 529
[26] = test system: M14
[27] = test system: M19-MEL
[28] = test system: MOLT-4
[29] = test system: Malme-3M
[30] = test system: NCI-H226
[31] = test system: NCI-H23
[32] = test system: NCI-H460
[33] = test system: NCI-H522
[34] = test system: OVCAR-3
[35] = test system: OVCAR-4
[36] = test system: OVCAR-5
[37] = test system: OVCAR-8
[38] = test system: RPMI-8226
[39] = test system: RXF 393
[40] = test system: SF-268
[41] = test system: SF-295
[42] = test system: SF-539
[43] = test system: SK-MEL-28
[44] = test system: SK-MEL-2
[45] = test system: SK-MEL-5
[46] = test system: SK-OV-3
[47] = test system: SN12C
[48] = test system: SNB-19
[49] = test system: SNB-75
[50] = test system: SNB-78
[51] = test system: SR
[52] = test system: SW-620
[53] = test system: TK-10
[54] = test system: U-251
[55] = test system: UACC-257
[56] = test system: UACC-62
[57] = test system: UO-31
[58] = test system: XF498

In the case of `COC(=O)C1=C(C(=O)OC)C2(OC(C)=O)c3ccccc3-c3ccccc3C12` (stereo not drawn), the GI50 [1] is reported as 4.23 µM (inactive), the GI50 [2] is reported as 18.1 µM (inactive) and the GI50 [3] is reported as 17.3 µM (inactive). The GI50 [4] was 2.54 µM (inactive), the GI50 [5] was 2.16 µM (inactive) and the GI50 [6] was 0.733 µM (active). The GI50 [7] was 1.63 µM (inactive), the GI50 [8] was 1.7 µM (inactive) and the GI50 [9] was 5.37 µM (inactive). The GI50 [10] was 4.98 µM (inactive), the GI50 [11] was 10.6 µM (inactive) and the GI50 [12] was 16.7 µM (inactive). The GI50 [13] was 3.66 µM (inactive), the GI50 [14] was 5.26 µM and the GI50 [15] was 4.85 µM (inactive). The GI50 [16] was 5.2 µM (inactive), the GI50 [17] was 20 µM (inactive) and the GI50 [18] was 1.77 µM (inactive). For the same compound, the GI50 [19] was 5.47 µM (inactive), the GI50 [20] was 3.74 µM (inactive) and the GI50 [21] was 1.83 µM (inactive). For the same compound, the GI50 [22] was 6.15 µM (inactive), the GI50 [23] was 12.5 µM (inactive) and the GI50 [24] was 5.09 µM (inactive). The GI50 [25] was 1.7 µM (inactive), the GI50 [26] was 4.79 µM (inactive) and the GI50 [27] was 4.56 µM (inactive). The GI50 [28] was 1.96 µM (inactive), the GI50 [29] was 2.25 µM (inactive) and the GI50 [30] was 16.5 µM (inactive). The GI50 [31] was 11.5 µM (inactive), the GI50 [32] was 17 µM (inactive) and the GI50 [33] was 1.44 µM (inactive). The GI50 [34] was 5.53 µM (inactive), the GI50 [35] was 2.47 µM (inactive) and the GI50 [36] was 14.2 µM (inactive). For the same compound, the GI50 [37] was 5.93 µM (inactive), the GI50 [38] was 2.62 µM (inactive) and the GI50 [39] was 4.8 µM (inactive). The GI50 [40] was 7.62 µM (inactive), the GI50 [41] was 17.9 µM (inactive) and the GI50 [42] was 17.2 µM (inactive). The GI50 [43] was 5.27 µM (inactive), the GI50 [44] was 14.5 µM (inactive) and the GI50 [45] was 14.1 µM (inactive). The GI50 [46] was 15.5 µM (inactive), the GI50 [47] was 4.89 µM (inactive) and the GI50 [48] was > 40.7 µM (inactive). For the same compound, the GI50 [49] was 11.7 µM (inactive), the GI50 [50] was 4.95 µM (inactive) and the GI50 [51] was 2.33 µM (inactive). For the same compound, the GI50 [52] was 1.66 µM (inactive), the GI50 [53] was 3.6 µM (inactive) and the GI50 [54] was 7.87 µM (inactive). The GI50 [55] was 5.96 µM (inactive), the GI50 [56] was 11 µM (inactive) and the GI50 [57] was 4.68 µM (inactive). The GI50 [58] was 12.4 µM (inactive).
`CCN(CC)CCN(C)CC(C)(C)C(=O)/C=C/c1ccccc1` was tested, and the GI50 [1] was 15.8 µM (inactive), the GI50 [2] was 4.11 µM (inactive) and the GI50 [3] was 16.4 µM (inactive). The GI50 [4] was 12.6 µM (inactive), the GI50 [5] was 11.8 µM (inactive) and the GI50 [6] was 4.99 µM (inactive). The GI50 [7] was 13.7 µM (inactive), the GI50 [8] was 5.46 µM (inactive) and the GI50 [9] was 6.58 µM (inactive). For the same compound, the GI50 [10] was 13 µM (inactive), the GI50 [11] was 13.1 µM (inactive) and the GI50 [12] was 14.5 µM (inactive). For the same compound, the GI50 [14] was 12.5 µM, the GI50 [15] was 6.22 µM (inactive) and the GI50 [16] was 15.9 µM (inactive). For the same compound, the GI50 [17] was 22.1 µM (inactive), the GI50 [18] was 3.99 µM (inactive) and the GI50 [19] was 11.2 µM (inactive). For the same compound, the GI50 [20] was 16.7 µM (inactive), the GI50 [21] was 0.0693 µM (active) and the GI50 [22] was 11.1 µM (inactive). For the same compound, the GI50 [23] was 12.1 µM (inactive), the GI50 [24] was 11 µM (inactive) and the GI50 [25] was 12.3 µM (inactive). The GI50 [26] was 13 µM (inactive), the GI50 [27] was 11.6 µM (inactive) and the GI50 [28] was 5.16 µM (inactive). For the same compound, the GI50 [29] was 13.4 µM (inactive), the GI50 [30] was 17.1 µM (inactive) and the GI50 [31] was 12.6 µM (inactive). For the same compound, the GI50 [32] was 5.68 µM (inactive), the GI50 [33] was 9.77 µM (inactive) and the GI50 [34] was 13.5 µM (inactive). For the same compound, the GI50 [35] was 11.4 µM (inactive), the GI50 [36] was 14 µM (inactive) and the GI50 [37] was 15.8 µM (inactive). For the same compound, the GI50 [38] was 4.15 µM (inactive), the GI50 [40] was 12.6 µM (inactive) and the GI50 [41] was 15 µM (inactive). For the same compound, the GI50 [42] was 5.01 µM (inactive), the GI50 [43] was 16 µM (inactive) and the GI50 [44] was 11.7 µM (inactive). The GI50 [45] was 14.2 µM (inactive), the GI50 [46] was 12.6 µM (inactive) and the GI50 [47] was 10 µM (inactive). For the same compound, the GI50 [48] was 15.1 µM (inactive), the GI50 [49] was 4.36 µM (inactive) and the GI50 [51] was 10.5 µM (inactive). The GI50 [52] was 11.5 µM (inactive), the GI50 [53] was 22.2 µM (inactive) and the GI50 [54] was 10.4 µM (inactive). The GI50 [55] was 11.7 µM (inactive), the GI50 [56] was 12.7 µM (inactive) and the GI50 [57] was 13.4 µM (inactive). For the same compound, the GI50 [58] was 12.4 µM (inactive).
